Experimental data published in patent US20060138687A1, “Method of forming particles” (Ferro Corporation, priority 2003, published 2006).

Experiment: Scanning Electron Microscopy (SEM) analysis of collected particles
Assay type: physicochemical
Conditions: SEM micrograph; particles made by third embodiment (droplets frozen on contact with CO2/ethanol/water extracting fluid at −23° C., solid-liquid extraction)
Method: The collected particles were analyzed using Scanning Electron Microscopy (SEM). From FIG. 11 it is clear that the GF particles are in the form of non-agglomerated crystals, having an orthorhombic shape. The mean size of the substantially uniform particles is around 5-10 μm.
Analysis of the porous lactose particles was carried out in the same manner as described in Example 1. FIG. 12 is an SEM micrograph of the lactose particles. […] If desired, these lactose nanocrystals can be obtained simply by crumbling the large porous lactose spheres.

| mean size of the particles | SMILES |
| --- | --- |
| 5-10 μm | COC1=CC(=O)C[C@@H](C)[C@]12Oc1c(Cl)c(OC)cc(OC)c1C2=O [GF, Griseofulvin] |
| 20-30 μm | OC[C@H]1O[C@@H](O[C@H]2[C@H](O)[C@@H](O)C(O)O[C@@H]2CO)[C@H](O)[C@@H](O)[C@H]1O (some centres unmarked) [lactose, Lactose] |
